Measurements reported in ChEMBL document CHEMBL5608241, “Discovery of Novel Non-nucleoside DOT1LR231Q Inhibitors with Improved Pharmacokinetic Properties and Anti-lung Cancer Efficacy” (J Med Chem, 2024).
The source made the active and inactive calls. No cut-off for these calls is given here.

Tests used:
NCI-H460 [1] = assay: Inhibition of sphere formation in human NCI-H460 cells exogenously expressing wildtype DOT1L (unknown origin) (1 to 416 residues) assessed as reduction in self-renewal at 5 uM incubated for 7 to 14 days by inverted microscopic analysis relative to control; assay type: functional; details: time 7-14 day
NCI-H460 [2] = assay: Inhibition of colony formation in human NCI-H460 cells exogenously expressing wildtype DOT1L (unknown origin) (1 to 416 residues) at 5 uM incubated for 7 to 14 days by crystal violet staining based light microscopic analysis relative to control; assay type: functional; details: time 7-14 day
[3] = Tmax in male Sprague-Dawley rat at 20 mg/kg, ip measured after 24 hrs by LC-MS/MS analysis; assay type: ADME, organism-based; details: in vivo
[4] = Cmax in male Sprague-Dawley rat at 20 mg/kg, iv measured after 24 hrs by LC-MS/MS analysis; assay type: ADME, organism-based; details: in vivo
NCI-H460 [5] = assay: Effect on H3K4me1 expression in human NCI-H460 cells exogenously expressing DOT1L R231Q mutant (unknown origin) (1 to 416 residues) at 5 uM by Western blot analysis; assay type: functional, cell-based
[6] = Clearance in male Sprague-Dawley rat at 20 mg/kg, iv measured after 24 hrs by LC-MS/MS analysis; assay type: ADME, organism-based; details: in vivo
NCI-H460 [7] = assay: Antimigratory activity in human NCI-H460 cells exogenously expressing wildtype DOT1L (unknown origin) (1 to 416 residues) assessed as decrease in number of migrating cells at 2.5 to 5 uM measured after 72 hrs by wound healing assay; assay type: functional, cell-based; details: dose 2.5-5 µM
NCI-H460 [8] = assay: Inhibition of DOT1L R231Q mutant (unknown origin) (1 to 416 residues) exogenously expressed in human NCI-H460 cells assessed as reduction in H3K79me2 level at 5 uM by Western blot analysis relative to control; assay type: cell-based
NCI-H460 [9] = assay: Effect on H3K9me2 expression in human NCI-H460 cells exogenously expressing wildtype DOT1L (unknown origin) (1 to 416 residues) at 5 uM by Western blot analysis; assay type: functional, cell-based
[10] = Toxicity in male BALB/c-nu mouse model xenografted with human NCI-H460 cells harboring DOT1L R231Q mutant assessed as effect on heart viscera index at 20 mg/kg, ip administered five times a week for 3 weeks; assay type: organism-based; details: in vivo, 504 h
[11] = AUC (0 to infinity) in male Sprague-Dawley rat at 20 mg/kg, iv measured after 24 hrs by LC-MS/MS analysis; assay type: ADME, organism-based; details: in vivo
NCI-H460 [12] = assay: Effect on H3K27me3 expression in human NCI-H460 cells exogenously expressing wildtype DOT1L (unknown origin) (1 to 416 residues) at 5 uM by Western blot analysis; assay type: functional, cell-based
[13] = Toxicity in male BALB/c-nu mouse model xenografted with human NCI-H460 cells harboring DOT1L R231Q mutant assessed as effect on spleen viscera index at 20 mg/kg, ip administered five times a week for 3 weeks; assay type: organism-based; details: in vivo, 504 h
NCI-H460 [14] = assay: Inhibition of colony formation in human NCI-H460 cells exogenously expressing DOT1L R231Q mutant (unknown origin) (1 to 416 residues) at 5 uM incubated for 7 to 14 days by crystal violet staining based light microscopic analysis relative to control; assay type: functional; details: time 7-14 day
[15] = Tmax in male Sprague-Dawley rat at 20 mg/kg, iv measured after 24 hrs by LC-MS/MS analysis; assay type: ADME, organism-based; details: in vivo
[16] = Toxicity in male BALB/c-nu mouse model xenografted with human NCI-H460 cells harboring DOT1L R231Q mutant assessed as effect on kidney viscera index at 20 mg/kg, ip administered five times a week for 3 weeks; assay type: organism-based; details: in vivo, 504 h
[17] = molecular target: Dual specificity mitogen-activated protein kinase kinase; MEK1/2 (Homo sapiens) (UniProt P36507+Q02750); assay: Inhibition of MEK phosphorylation in human NCI-H460 cells exogenously expressing wildtype DOT1L (unknown origin) (1 to 416 residues) at 5 uM by Western blot analysis; assay type: cell-based
Dual specificity mitogen-activated protein kinase kinase; MEK1/2 (Homo sapiens), sequence (P36507 whole entry, looked up, the tested form may be a part): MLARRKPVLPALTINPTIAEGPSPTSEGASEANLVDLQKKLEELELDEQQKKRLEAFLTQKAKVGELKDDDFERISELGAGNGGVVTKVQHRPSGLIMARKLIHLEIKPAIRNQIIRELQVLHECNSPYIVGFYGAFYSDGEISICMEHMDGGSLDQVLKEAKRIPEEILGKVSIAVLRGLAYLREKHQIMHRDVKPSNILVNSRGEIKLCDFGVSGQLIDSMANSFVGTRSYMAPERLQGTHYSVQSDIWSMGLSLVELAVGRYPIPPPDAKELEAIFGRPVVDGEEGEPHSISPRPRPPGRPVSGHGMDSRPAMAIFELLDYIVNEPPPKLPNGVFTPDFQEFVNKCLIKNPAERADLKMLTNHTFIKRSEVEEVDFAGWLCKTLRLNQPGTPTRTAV
Dual specificity mitogen-activated protein kinase kinase; MEK1/2 (Homo sapiens), sequence (Q02750 whole entry, looked up, the tested form may be a part): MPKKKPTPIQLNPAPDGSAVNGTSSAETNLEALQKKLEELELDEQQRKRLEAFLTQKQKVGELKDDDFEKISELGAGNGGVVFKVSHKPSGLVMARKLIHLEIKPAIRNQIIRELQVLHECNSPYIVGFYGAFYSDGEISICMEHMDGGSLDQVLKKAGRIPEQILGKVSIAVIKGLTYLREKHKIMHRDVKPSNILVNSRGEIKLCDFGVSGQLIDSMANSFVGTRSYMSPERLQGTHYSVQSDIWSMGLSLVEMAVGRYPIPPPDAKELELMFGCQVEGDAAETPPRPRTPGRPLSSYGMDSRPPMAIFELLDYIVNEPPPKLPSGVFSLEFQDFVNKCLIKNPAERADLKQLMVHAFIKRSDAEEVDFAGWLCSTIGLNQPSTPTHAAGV

NCI-H460 [18] = assay: Effect on H3K36me2 expression in human NCI-H460 cells exogenously expressing DOT1L R231Q mutant (unknown origin) (1 to 416 residues) at 5 uM by Western blot analysis; assay type: functional, cell-based
[19] = MRT (0 to infinity) in male Sprague-Dawley rat at 20 mg/kg, ip measured after 24 hrs by LC-MS/MS analysis; assay type: ADME, organism-based; details: in vivo
NCI-H460 [20] = assay: Antimigratory activity in human NCI-H460 cells exogenously expressing wildtype DOT1L (unknown origin) (1 to 416 residues) assessed as decrease in number of migrating cells at 5 uM measured after 72 hrs by wound healing assay relative to control; assay type: functional; parameters: scale not given: the % may be the effect or the level left
NCI-H460 [21] = assay: Antiproliferative activity against human NCI-H460 cells harboring wildtype DOT1L (unknown origin) (1 to 416 residues) assessed as inhibition of cell proliferation incubated for 72 hrs by CCK-8 assay; assay type: functional, cell-based; details: NCI-H460, 72 h
NCI-H460 [22] = assay: Antiproliferative activity against human NCI-H460 cells harboring DOT1L R231Q mutant (unknown origin) (1 to 416 residues) assessed as inhibition of cell proliferation incubated for 72 hrs by CCK-8 assay; assay type: functional, cell-based; details: NCI-H460, 72 h
[23] = Half-life in male Sprague-Dawley rat at 20 mg/kg, iv measured after 24 hrs by LC-MS/MS analysis; assay type: ADME, organism-based; details: in vivo
NCI-H460 [24] = assay: Inhibition of MAPK/ERK signaling pathway in human NCI-H460 cells exogenously expressing DOT1L R231Q mutant (unknown origin) (1 to 416 residues) assessed as decrease in RAF1 expression at 5 uM by Western blot analysis; assay type: cell-based
[25] = Volume of distribution at steady state in male Sprague-Dawley rat at 20 mg/kg, iv measured after 24 hrs by LC-MS/MS analysis; assay type: ADME, organism-based; details: in vivo, read-out: Vdss
NCI-H460 [26] = assay: Inhibition of ERK phosphorylation in human NCI-H460 cells exogenously expressing wildtype DOT1L (unknown origin) (1 to 416 residues) at 5 uM by Western blot analysis; assay type: cell-based
NCI-H460 [27] = assay: Antiinvasive activity against human NCI-H460 cells exogenously expressing DOT1L R231Q mutant (unknown origin) (1 to 416 residues) assessed as decrease in number of invading cells at 5 uM incubated for 72 hrs by crystal violet staining based transwell invasion assay relative to control; assay type: functional; parameters: scale not given: the % may be the effect or the level left
[28] = Half-life in male Sprague-Dawley rat at 20 mg/kg, ip measured after 24 hrs by LC-MS/MS analysis; assay type: ADME, organism-based; details: in vivo
NCI-H460 [29] = assay: Antitumor activity against human NCI-H460 cells harboring DOT1L R231Q mutant xenografted in male BALB/c-nu mouse model assessed as tumor growth inhibition at 20 mg/kg, ip administered five times a week for 3 weeks relative to control; assay type: functional; details: NCI-H460, 504 h, read-out: TGI
NCI-H460 [30] = assay: Antiinvasive activity against human NCI-H460 cells exogenously expressing DOT1L R231Q mutant (unknown origin) (1 to 416 residues) assessed as inhibition of cell invasion at 2.5 to 5 uM incubated for 72 hrs by crystal violet staining based transwell invasion assay; assay type: functional; details: dose 2.5-5 µM
NCI-H460 [31] = assay: Inhibition of MAPK/ERK signaling pathway in human NCI-H460 cells exogenously expressing wildtype DOT1L (unknown origin) (1 to 416 residues) assessed as decrease in RAF1 expression at 5 uM by Western blot analysis; assay type: cell-based

CC(C)(C)c1ccc(NC(=O)NCCCN(CCCN2CCOCC2)CC2(O)CCN(c3nc(Cl)nc4sccc34)C2)cc1 (stereo unspecified)
inhibition at 5 µM (NCI-H460 [1]): 68.9%
inhibition at 5 µM (NCI-H460 [2]): 42%
Tmax [3]: 0.25 h
Cmax [4]: 3000 ng/mL
Activity (NCI-H460 [5]): inactive
clearance [6]: 55.2 mL/min/kg
Activity (NCI-H460 [7]): Active
inhibition (NCI-H460 [8]): > 50%
Activity (NCI-H460 [9]): inactive
Activity [10]: Non-Toxic
AUC(0-inf) [11]: 6200 ng·h/mL
Activity (NCI-H460 [12]): inactive
Activity [13]: Non-Toxic
inhibition at 5 µM (NCI-H460 [14]): 72.8%
Tmax [15]: 4.98 min
Activity [16]: Non-Toxic
inhibition [17]: inactive
Activity (NCI-H460 [18]): inactive
MRT inf [19]: 5.42 h
Activity (NCI-H460 [20]): 38.3%
IC50 (NCI-H460 [21]): 20 µM
IC50 (NCI-H460 [22]): 2.85 µM
half-life [23]: 3.9 h
inhibition (NCI-H460 [24]): Active
Vd [25]: 14.4 L/kg
inhibition (NCI-H460 [26]): inactive
Activity (NCI-H460 [27]): 77.7%
half-life [28]: 6.06 h
inhibition in vivo at 20 mg/kg (NCI-H460 [29]): 60.6%
Activity (NCI-H460 [30]): Active
inhibition (NCI-H460 [31]): inactive
